Read-outs that look alike come from different tables or passages of the source.

Data set [1] deals with T1, SAP binding to AA type amyloid fibrils (Homo sapiens, UniProt P02743).
T1 construct: isolated at greater than 99% purity from pooled human ascites and pleural effusion fluids; from tissue; host or cells: SAP from pooled human ascites and pleural effusion fluids; fibrils from patients' organs such as spleen
As to the kind of experiment: Inhibition of SAP binding to amyloid fibrils (125I-SAP). Conditions: concentrations above about 2 mM in the final incubation mixture. As to the method:
Amyloid fibrils are isolated from the organs, such as the spleen, obtained post mortem from patients with amyloidosis of AA or AL type, using the water extraction method of Pras et al. This method is modified in that the initial saline homogenizations are conducted using Tris buffered saline containing 10 mM EDTA to ensure complete dissociation of all endogenous SAP [56]. The fibril-rich water extract is mixed with Tris buffered saline containing calcium chloride to bring the final salt concentration to 138 m NaCl, 10 mM Tris, 2 mM CaCl2, pH 8.0, and this is then centrifuged at 1500 g for 5 minutes to sediment the fibrils. These are then resuspended in Tris saline calcium buffer, pH 8.0, at the same concentration as above (TC buffer), so as to provide a suitable suspension, for example, A280 =0.255, A320 =0.132, and this is stored at 4° C. […] Agents to be tested are dissolved at a concentration of about 10 mM in TC, or in 1:10 DMSO in water or TC. If they are active in inhibiting SAP binding they are tested at a range of lower concentrations to determine the minimal inhibitory dose.
For the assay itself 10 μl of labelled SAP is mixed with 50 μl of amyloid fibril suspension and 40 μl of the test substance and incubated, with mixing, for 60 minutes at room temperature. […] The fibrils are washed with TC containing 1% w/v BSA and the radioactive SAP bound is measured. […]

Data set [2] relates to AA amyloid fibrils. As to the kind of experiment: Trypsin or chymotrypsin digestion of AA amyloid fibrils, SDS-PAGE quantification of AA protein band. The class given is biochemical, human. Conditions: 6 hours at 37° C. As to the method:
(b) AA amyloid fibrils obtained ex vivo were incubated for 6 hours at 37° C. with trypsin or chymotrypsin at a substrate:enzyme ratio of 10:1 in the presence or absence of SAP and with or without MOβDG, according to the general protocol given above. The incubation mixtures were then analysed by Coomassie blue stained SDS-PAGE with quantification of the AA protein band. Intensity of this band after incubation without trypsin was taken as 100%.

Data set [3] relates to Alzheimer's disease β-protein fibrils. As to the kind of experiment: Pronase digestion of Alzheimer's disease β-protein fibrils, SDS-PAGE. The class given is biochemical. Conditions: for Digestion of β-protein: SAP 10 μg/ml, pronase 1 μg/ml, 1 hour at 37° C. As for the experimental part:
Alzheimer's disease β-protein, prepared as a synthetic peptide containing residues 1-40 was obtained from California Peptide Research, and was dissolved in pure water at 4 mg/ml, that is 1 mM. Some was kept at 4° C. ("fresh") and some was aged by incubation at 37° C. for 7 days. It is known that fibrils form very slowly in the cold but that "ageing" is associated with marked amyloid fibril formation, and this was confirmed in the present case by Congo red staining and by direct electron microscopy.
(a) β-protein solutions obtained as described above were diluted to 0.2 mg/ml in TC immediately before use. Highly purified human SAP in solution in 138 mM NaCl, 10 mM Tris, pH 8.0 (TN) was diluted in TN to 0.1 mg/ml, 0.5 mg/ml and 2.5 mg/ml Pronase from S. griseus was obtained from Boehringer Mannheim and was freshly prepared at 0.04 and 0.004 mg/ml in TC just before use.
Aliquots, 50 μl, of aged or fresh β-protein were mixed with 20 μl volumes of TN alone or SAP at the different concentrations shown in FIG. 5 and with 5 μl of 10 mM CaCl2, and then incubated with shaking at 37° C. for 1 hour. TC alone or pronase in TC at 0.04 or 0.004 mg/ml were added in a volume of 25 μl and incubation continued for a further 1 hour at 37° C. Digestion was then stopped by addition of an equal volume of reducing SDS-PAGE sample buffer (20 mM Tris pH 8.0, 2 mM EDTA, 5% w/v SDS, 10% w/v 2-mercaptoethanol, 0.05% w/v bromophenol blue, 20% w/v glycerol) and boiling for 10 minutes. These samples were finally analysed in reduced SDS homogeneous 15% PAGE, stained with Brilliant blue R350. The proportion of the β-protein present in each track was estimated by scanning densitometry with reference to the no pronase control which was taken as 100%. The proportion digested was calculated by subtraction and plotted against the SAP concentration.
(d) Abrogation of protection by MOβDG: β-protein fibrils at 100 μg/ml were incubated for 1 hour at 37° C. with pronase at 1 μg/ml, in the presence or absence of SAP and with or without different concentrations of MOβDG. The extent of digestion of the β-protein was then estimated by SDS-PAGE analysis.

The subject of data set [4] is amyloid fibrils of AA, AL and apoAI type. As to the kind of experiment: Proteinase digestion of ex vivo amyloid fibrils (AA, AL, apoAI) in vitro. The data set is classed as biochemical, human. Conditions: for Effect on fibril digestion by proteinases: protein added to incubation mixtures, 37° C.
Data set [5] addresses T2, SAP (Homo sapiens, UniProt P02743).
T2 construct: homopentamer, can form decamer; calcium-dependent ligand site
As to the kind of experiment: Binding of DNA by SAP. Conditions: unpublished observations. An excerpt: SAP also binds polyanions such as heparan sulphate, dermatan sulphate and DNA [4] in the presence of calcium. […] There are several basic regions in SAP, for example Arg120, Arg77, His78, Lys79 and Arg57, which are on the same surface as the calcium and PE binding sites. It seems more likely that the phosphate backbone of DNA and the sulphated polysaccharides bind both at the calciums and at the basic sites, possibly on more than one subunit simultaneously. These extensive interactions probably account for the ability of SAP to displace from DNA the H1-type histones in chromatin [5]. The sequence differences in the basic regions and in the calcium binding region could explain the variable affinity for DNA shown by different pentraxins. Human CRP, for instance, only binds DNA at low, non-physiological ionic strength. […] Similar effects are observed for SAP binding to immobilised PE [unpublished observations]. As we can find no evidence for a second binding site for PE or MOβDG in the present experimental conditions, these effects must be mediated through inter-subunit interactions.

Data set [6] concerns the target T2, SAP. Conditions: neutral solutions in the presence of calcium ions; reference [44]; cited from earlier work.
Data set [7] deals with T2, SAP. As to the kind of experiment: Calcium-dependent aggregation of SAP in neutral solution. Conditions: neutral solutions in the presence of calcium ions; unpublished observations. The text has this:
SAP rapidly aggregates in neutral solutions in the presence of calcium ions presumably due to intermolecular interactions involving the surface of the decamer with the exposed calcium binding site. […] Similarly they compete for the calcium site with Glu167 which is an important lattice contact in the pentamer crystals.

T2 sequence (P02743 20-223): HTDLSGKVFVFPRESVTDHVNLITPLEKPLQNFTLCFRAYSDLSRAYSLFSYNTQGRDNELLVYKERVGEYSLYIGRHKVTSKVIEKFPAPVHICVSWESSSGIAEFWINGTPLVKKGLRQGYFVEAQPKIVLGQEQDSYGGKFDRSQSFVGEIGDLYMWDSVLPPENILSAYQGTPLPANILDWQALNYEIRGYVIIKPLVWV
T1 sequence (P02743 20-223): as above

On to `CO[C@@H]1O[C@@H]2CO[C@@](C)(C(=O)O)O[C@@H]2[C@H](O)[C@H]1O` [MOβDG, methyl 4,6-O-(1-carboxyethylidene)-β-D-galactopyranoside], for which, in data set [1], the “Effect on SAP binding to amyloid fibrils” value is on record as “reduces binding to background levels”. The “% AA protein remaining” value in data set [2] (Chymotrypsin, SAP 50 μg/ml plus MOβDG 1 mM) came out at 10%; in data set [2] (Trypsin, SAP 50 μg/ml plus MOβDG 1 mM), 5%. For the same molecule, the “Digestion of β-protein” value is recorded as 75% in data set [3] (MOβDG 1.3 mM), 85% in data set [3] (MOβDG 6.7 mM) and 90% in data set [3] (MOβDG 33.3 mM). Also, in data set [3] (β-protein amyloid fibrils with SAP), the “Protection by SAP in the presence of MOβDG” value was “completely abrogated”. The “Protective effect of SAP when MOβDG was included” value in data set [4] (MOβDG included in the incubation mixtures with SAP) is “completely abrogated”. The “Effect on binding of DNA by SAP” value in data set [5] was “enhance the binding of DNA by SAP and compete with the interaction at high concentration”. Further, the “Inhibition of SAP aggregation” value in data set [6] is recorded as “can be inhibited”.
With `NCCOP(=O)(O)O` [PE, phosphoethanolamine], the “Inhibition of SAP aggregation” value in data set [7] is given as “can be inhibited”. The “Effect on binding of DNA by SAP” value in data set [5] was “enhance the binding of DNA by SAP and compete with the interaction at high concentration”.
For “CRP: C-reactive protein, control protein that does not bind to amyloid fibrils”, the “Effect on fibril digestion by proteinases” value in data set [4] was “had no effect on their digestion”.
For “SAP: Serum amyloid P component, a normal human plasma protein; highly purified human SAP”, the “% AA protein remaining” value in data set [2] (Chymotrypsin, SAP 10 μg/ml, no MOβDG) is on record as 20%; in data set [2] (Chymotrypsin, SAP 50 μg/ml, no MOβDG), 60%; in data set [2] (Trypsin, SAP 10 μg/ml, no MOβDG), 20%; in data set [2] (Trypsin, SAP 50 μg/ml, no MOβDG), 50%. The “Digestion of β-protein” value in data set [3] (MOβDG 0 mM) turned out to be 60%. For the same molecule, the “Protection of β-protein amyloid fibrils from proteolysis” value in data set [3] (fibrils produced in vitro from synthetic β-protein) is on record as “protected the β-protein amyloid fibrils from proteolysis”. Further, the “Effect on fibril digestion by proteinases” value in data set [4] is “greatly reduced fibril digestion”.

Values taken from patent US6126918A, “Screening assays to identify therapeutic agents for amyloidosis” (Imperial College Innovations Limited, priority 1993, dated 2000).
